Numbers after ± are expanded uncertainties.
Experiments:
[1] = mn = molality of the nth substance listed, in mol/kg; details: 303.15 K, Ring tensiometer, m2 = 0
[2] = for Normal melting temperature: Crystal, DTA

SMILES	surface tension liquid-gas [1]	Normal melting temperature [2]	other results
O [water] + CCCCCCCCCCCC[n+]1ccsc1.[Br-]	71.14 ± 2.3 mN/m		
O [water] + CCCCCCCCCCCC[n+]1cscc1C.[Br-]	71.14 ± 2.3 mN/m		
CCCCCCCCCCCC[n+]1cscc1C.[Br-] [N-dodecyl-4-methylthiazolium bromide]		103.16 ± 0.7 °C	
CCCCCCCCCCCC[n+]1ccsc1.[Br-] [N-dodecylthiazolium bromide]		67 ± 0.7 °C	
O [water]			surface tension liquid-gas ([2]; 303.15 K, Liquid, Ring tensiometer): 71.14 ± 2.3 mN/m

From the NIST ThermoML archive (doi:10.1016/j.jct.2018.12.021)
